Assay results from ChEMBL document CHEMBL1201862, “PubChem BioAssay data set” (2004).
One block for each compound: values may come before it. Active and inactive are the calls of the source.

Experiments:
[1] = molecular target: 5-hydroxytryptamine receptor 2A (Mus musculus, UniProt P35363); assay type: functional, cell-based;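 further: CHO-K1 cells with tagged receptor and beta-arrestin; agonist potency measured as compound-induced activation of the receptor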
Mu-type opioid receptor = Mu-type opioid receptor (Homo sapiens, UniProt P35372); assay type: functional, cell-based;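 further: U2OS cells with beta-arrestin recruitment to OPRM1 by beta-gal complementation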
Chain of Mu-type opioid receptor (P35372 whole entry): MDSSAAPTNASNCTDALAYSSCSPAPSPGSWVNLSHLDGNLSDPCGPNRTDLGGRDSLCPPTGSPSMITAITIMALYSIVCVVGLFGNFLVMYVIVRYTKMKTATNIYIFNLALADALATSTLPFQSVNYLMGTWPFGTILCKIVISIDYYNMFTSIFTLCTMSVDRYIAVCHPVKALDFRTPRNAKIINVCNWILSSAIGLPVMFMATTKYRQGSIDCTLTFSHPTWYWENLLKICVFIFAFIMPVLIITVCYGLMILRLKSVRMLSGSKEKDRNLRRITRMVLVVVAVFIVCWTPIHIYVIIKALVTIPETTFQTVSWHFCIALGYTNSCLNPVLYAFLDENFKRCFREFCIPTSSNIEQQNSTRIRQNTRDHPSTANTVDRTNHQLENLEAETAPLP

[2] = molecular target: T1, Sentrin-specific protease 6 (Homo sapiens, UniProt Q9GZR1); assay type: functional;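 further: Luminescence-based dose-response confirmatory assay of SENP6 inhibition, following up an ultra-high-throughput screen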
T1 sequence (Q9GZR1 whole entry): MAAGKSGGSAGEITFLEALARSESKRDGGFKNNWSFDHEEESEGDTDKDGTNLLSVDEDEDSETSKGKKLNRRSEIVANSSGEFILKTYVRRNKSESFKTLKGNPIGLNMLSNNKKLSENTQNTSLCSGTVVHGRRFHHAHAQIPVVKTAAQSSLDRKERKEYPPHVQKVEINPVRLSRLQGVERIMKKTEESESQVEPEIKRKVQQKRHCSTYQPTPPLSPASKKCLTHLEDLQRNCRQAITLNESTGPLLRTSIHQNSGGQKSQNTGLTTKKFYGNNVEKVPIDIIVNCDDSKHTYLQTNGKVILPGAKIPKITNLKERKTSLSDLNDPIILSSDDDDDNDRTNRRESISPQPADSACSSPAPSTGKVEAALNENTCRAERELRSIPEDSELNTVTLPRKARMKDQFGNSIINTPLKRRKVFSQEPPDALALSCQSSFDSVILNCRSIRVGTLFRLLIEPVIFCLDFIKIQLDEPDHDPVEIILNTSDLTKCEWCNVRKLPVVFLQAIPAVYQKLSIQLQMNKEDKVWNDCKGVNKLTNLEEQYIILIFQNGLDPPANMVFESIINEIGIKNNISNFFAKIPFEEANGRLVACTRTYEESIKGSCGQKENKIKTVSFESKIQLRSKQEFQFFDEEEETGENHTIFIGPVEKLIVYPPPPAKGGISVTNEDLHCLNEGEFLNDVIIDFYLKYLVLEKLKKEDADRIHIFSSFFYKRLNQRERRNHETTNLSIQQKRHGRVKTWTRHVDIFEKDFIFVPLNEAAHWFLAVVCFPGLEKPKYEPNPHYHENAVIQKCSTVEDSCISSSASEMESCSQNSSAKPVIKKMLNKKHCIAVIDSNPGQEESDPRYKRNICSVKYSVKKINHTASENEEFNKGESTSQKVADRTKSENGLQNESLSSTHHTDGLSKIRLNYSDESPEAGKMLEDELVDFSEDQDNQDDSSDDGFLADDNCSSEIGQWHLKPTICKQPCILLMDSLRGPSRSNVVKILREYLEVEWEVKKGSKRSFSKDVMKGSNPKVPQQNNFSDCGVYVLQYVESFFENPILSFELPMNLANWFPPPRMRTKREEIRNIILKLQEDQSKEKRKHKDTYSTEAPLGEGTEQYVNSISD

[3] = molecular target: T2, Sentrin-specific protease 7 (Homo sapiens, UniProt Q9BQF6); assay type: functional;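 further: Luminescence-based dose-response confirmation of ultra-high-throughput screening hits, measuring inhibition of SENP7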
T2 sequence (Q9BQF6 whole entry): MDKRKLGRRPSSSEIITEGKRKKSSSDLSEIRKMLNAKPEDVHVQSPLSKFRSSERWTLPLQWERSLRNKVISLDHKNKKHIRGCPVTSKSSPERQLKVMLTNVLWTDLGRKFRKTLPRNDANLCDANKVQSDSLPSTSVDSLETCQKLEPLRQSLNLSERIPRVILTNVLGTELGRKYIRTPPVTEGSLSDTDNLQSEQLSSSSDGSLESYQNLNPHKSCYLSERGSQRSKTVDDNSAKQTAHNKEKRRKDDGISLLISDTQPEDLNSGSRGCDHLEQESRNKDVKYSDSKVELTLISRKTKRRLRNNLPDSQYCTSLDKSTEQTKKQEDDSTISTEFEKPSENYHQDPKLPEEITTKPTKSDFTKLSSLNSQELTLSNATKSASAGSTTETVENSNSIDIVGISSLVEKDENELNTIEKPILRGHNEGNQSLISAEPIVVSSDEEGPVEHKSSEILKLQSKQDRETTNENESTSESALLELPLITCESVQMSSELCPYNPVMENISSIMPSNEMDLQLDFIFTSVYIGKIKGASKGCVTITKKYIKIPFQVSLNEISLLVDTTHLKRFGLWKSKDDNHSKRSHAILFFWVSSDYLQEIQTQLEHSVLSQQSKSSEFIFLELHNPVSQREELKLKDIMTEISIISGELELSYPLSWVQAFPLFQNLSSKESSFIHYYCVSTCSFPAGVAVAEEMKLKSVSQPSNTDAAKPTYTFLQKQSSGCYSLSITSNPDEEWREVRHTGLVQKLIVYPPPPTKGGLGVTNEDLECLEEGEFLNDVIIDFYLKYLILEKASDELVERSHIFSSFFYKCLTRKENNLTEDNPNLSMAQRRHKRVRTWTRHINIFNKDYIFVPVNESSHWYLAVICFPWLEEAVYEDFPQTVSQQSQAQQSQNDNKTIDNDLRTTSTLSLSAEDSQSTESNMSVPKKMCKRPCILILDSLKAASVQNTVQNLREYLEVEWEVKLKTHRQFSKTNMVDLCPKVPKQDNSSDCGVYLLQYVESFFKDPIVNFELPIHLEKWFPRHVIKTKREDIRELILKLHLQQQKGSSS

Aminopeptidase N = molecular target: T3, Aminopeptidase N (Plasmodium falciparum FcB1/Columbia, UniProt O96935); assay: malaria alanyl aminopeptidase activity blockers – biochemical, fluorogenic H-Leu-NHMec substrate, 1536-well (AID 1445); set-up: species or system Plasmodium falciparum 3D7, 3D7
T3 sequence (O96935 whole entry): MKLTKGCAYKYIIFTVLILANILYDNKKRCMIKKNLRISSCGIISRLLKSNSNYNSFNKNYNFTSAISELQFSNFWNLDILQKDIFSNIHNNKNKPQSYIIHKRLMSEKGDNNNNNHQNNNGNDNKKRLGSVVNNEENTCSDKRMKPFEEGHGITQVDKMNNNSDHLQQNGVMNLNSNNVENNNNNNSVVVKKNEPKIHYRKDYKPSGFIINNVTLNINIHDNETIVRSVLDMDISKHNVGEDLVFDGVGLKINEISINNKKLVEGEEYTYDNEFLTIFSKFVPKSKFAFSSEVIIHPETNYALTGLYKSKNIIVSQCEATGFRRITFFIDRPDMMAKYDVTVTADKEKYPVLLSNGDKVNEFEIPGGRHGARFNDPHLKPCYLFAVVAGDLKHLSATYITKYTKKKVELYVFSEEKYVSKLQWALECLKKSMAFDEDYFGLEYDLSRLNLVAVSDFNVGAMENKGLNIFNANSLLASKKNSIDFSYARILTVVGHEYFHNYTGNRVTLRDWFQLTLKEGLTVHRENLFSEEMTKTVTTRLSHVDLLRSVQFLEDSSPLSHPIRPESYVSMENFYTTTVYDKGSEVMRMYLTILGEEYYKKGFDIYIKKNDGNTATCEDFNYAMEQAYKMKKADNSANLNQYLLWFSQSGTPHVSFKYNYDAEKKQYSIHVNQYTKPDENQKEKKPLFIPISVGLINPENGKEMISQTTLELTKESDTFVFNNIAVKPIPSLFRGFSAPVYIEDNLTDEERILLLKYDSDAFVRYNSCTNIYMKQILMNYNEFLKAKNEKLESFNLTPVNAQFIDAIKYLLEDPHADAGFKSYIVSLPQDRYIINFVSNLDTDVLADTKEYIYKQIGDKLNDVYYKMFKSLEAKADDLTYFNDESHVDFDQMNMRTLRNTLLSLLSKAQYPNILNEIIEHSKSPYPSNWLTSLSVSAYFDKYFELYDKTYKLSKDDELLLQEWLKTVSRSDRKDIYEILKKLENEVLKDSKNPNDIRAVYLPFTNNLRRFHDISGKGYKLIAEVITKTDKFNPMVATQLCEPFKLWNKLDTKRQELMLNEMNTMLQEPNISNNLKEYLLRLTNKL

[4] = molecular target: T4, Sentrin-specific protease 8 (Homo sapiens, UniProt Q96LD8); assay type: functional;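 further: luminescence read-out of SENP8 inhibition, dose-response confirmation following an ultra-high-throughput screen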
T4 sequence (Q96LD8 whole entry): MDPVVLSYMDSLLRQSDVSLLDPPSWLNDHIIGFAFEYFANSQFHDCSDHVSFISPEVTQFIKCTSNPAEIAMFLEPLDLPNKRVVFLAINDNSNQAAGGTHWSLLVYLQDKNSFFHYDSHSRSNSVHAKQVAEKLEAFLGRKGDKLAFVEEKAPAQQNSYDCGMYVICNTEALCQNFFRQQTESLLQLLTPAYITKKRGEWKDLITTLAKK

Caspase-3 = molecular target: T5, Caspase-3 (Homo sapiens, UniProt P42574); assay type: functional;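 further: Dose-response selectivity test against caspase-3 for candidate inhibitors of sentrin-specific proteases (SENPs)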
T5 sequence (P42574 whole entry): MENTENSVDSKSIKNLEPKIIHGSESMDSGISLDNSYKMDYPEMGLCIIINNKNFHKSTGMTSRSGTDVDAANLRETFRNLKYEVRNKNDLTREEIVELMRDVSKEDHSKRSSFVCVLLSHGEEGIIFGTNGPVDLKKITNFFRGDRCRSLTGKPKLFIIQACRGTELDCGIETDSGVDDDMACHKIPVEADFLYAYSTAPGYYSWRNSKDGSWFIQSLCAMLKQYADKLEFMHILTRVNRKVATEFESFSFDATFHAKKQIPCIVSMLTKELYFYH

Protein Wnt-3a = Protein Wnt-3a (Mus musculus, UniProt P27467); assay: antagonism of Wnt3a pathway luciferase reporter – Wnt-LIGHT cells, luminescence, selectivity assay for Gli-SUFU antagonist project, dose response (AID 651570); assay type: functional; details: read-out: IC50_Mean;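 further: Wnt-LIGHT reporter cells stimulated with conditioned medium from Wnt3a-producing cells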
Chain of Protein Wnt-3a (P27467 whole entry): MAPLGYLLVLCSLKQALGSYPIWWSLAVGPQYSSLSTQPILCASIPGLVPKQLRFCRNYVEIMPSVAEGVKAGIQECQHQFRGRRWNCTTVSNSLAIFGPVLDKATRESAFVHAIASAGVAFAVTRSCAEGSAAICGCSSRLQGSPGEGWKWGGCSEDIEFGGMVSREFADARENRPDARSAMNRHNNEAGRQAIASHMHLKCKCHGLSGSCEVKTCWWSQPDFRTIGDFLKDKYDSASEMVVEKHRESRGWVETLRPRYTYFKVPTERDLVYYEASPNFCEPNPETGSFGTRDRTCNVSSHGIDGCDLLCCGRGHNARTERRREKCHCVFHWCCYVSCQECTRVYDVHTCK

Estrogen receptor beta = Estrogen receptor beta (Homo sapiens, UniProt Q92731);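 further: recombinant ER-beta bound to coactivator SRC1 peptide in presence of estradiol agonist; inhibitors block coactivator peptide binding and lower the FRET signal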
Chain of Estrogen receptor beta (Q92731 whole entry): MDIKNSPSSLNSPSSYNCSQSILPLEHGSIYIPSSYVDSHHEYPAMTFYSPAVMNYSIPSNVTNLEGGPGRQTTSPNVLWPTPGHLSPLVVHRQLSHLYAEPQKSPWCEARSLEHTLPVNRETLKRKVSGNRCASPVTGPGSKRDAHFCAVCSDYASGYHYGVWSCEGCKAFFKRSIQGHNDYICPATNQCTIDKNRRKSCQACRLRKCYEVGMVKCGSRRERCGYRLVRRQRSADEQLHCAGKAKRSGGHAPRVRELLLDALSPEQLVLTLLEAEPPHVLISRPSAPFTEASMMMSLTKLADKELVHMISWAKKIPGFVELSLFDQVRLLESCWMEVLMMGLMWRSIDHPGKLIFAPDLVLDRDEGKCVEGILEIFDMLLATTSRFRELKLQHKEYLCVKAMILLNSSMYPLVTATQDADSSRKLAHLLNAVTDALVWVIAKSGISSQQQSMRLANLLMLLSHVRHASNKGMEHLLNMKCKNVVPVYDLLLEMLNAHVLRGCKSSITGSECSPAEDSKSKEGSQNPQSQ

[5] = viability loss in THP-1 monocytes – THP-1 cells, cytotoxicity control for Vif-APOBEC3G degradation inhibitor project, dose response (AID 1117359); assay type: functional; details: THP-1
[6] = blockade of melanocortin 4 receptor signaling – cell-based, plate reader, cherry pick, counter-screen for LGR2 antagonist project, dose response (AID 743444); assay type: functional;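 further: transfected HEK 293 cells stimulated with alpha-MSH peptide; potency of inhibitors of the alpha-MSH evoked signal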
[7] = A549 cell cytotoxicity, dose response, cytotoxicity control, plate reader, cherry-pick, antagonist series (AID 743412); assay type: functional, cell-based
[8] = blockers of bursicon-stimulated LGR2 cAMP reporter – cell-based, HEK293, CRE-luciferase reporter, cherry pick, set 2, dose response (AID 743343); assay type: functional;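 further: transfected cells were stimulated with diluted bursicon conditioned medium after compound addition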
Coagulation factor XII = molecular target: T6, Coagulation factor XII (Homo sapiens, UniProt P00748); assay type: functional;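 further: activated factor XIIa alpha cleaving a fluorogenic AMC peptide substrate; inhibitor potency from loss of enzyme activity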
T6 sequence (P00748 whole entry): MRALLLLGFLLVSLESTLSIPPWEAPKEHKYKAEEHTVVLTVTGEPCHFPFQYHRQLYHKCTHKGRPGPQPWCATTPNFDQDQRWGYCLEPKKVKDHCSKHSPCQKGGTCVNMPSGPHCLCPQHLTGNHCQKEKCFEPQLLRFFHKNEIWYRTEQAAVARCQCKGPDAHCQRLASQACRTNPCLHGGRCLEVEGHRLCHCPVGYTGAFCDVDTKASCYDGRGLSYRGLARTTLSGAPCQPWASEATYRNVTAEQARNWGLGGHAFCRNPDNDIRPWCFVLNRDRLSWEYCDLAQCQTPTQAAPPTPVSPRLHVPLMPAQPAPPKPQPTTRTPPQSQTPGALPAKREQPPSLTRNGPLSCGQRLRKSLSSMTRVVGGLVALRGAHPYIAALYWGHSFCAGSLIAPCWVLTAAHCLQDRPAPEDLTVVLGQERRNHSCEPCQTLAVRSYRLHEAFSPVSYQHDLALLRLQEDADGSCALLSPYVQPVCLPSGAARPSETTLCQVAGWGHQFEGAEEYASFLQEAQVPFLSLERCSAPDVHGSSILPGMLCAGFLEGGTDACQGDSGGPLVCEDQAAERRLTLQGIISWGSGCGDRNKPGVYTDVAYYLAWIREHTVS

Chain of 5-hydroxytryptamine receptor 2A (P35363 whole entry): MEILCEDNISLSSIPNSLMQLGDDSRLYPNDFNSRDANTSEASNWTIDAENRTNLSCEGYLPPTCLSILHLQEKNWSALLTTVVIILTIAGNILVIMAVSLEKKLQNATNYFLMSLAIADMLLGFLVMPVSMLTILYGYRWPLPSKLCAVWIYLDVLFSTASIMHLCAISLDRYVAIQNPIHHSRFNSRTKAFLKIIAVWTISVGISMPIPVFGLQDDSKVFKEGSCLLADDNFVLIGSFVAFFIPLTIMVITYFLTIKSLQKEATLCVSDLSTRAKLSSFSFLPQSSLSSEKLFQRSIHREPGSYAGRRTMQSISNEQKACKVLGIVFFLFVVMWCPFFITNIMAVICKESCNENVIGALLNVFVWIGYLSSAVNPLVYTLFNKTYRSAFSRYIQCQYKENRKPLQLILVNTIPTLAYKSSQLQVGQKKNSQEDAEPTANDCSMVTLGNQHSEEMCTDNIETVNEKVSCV

SMILES: O=[N+]([O-])c1cccnc1N1CCN(Cc2ccc3c(c2)OCO3)CC1
EC50 [1]: 0.00977 µM (active)
EC50 (Mu-type opioid receptor): 92.5 µM (inactive)

SMILES: CC(C)n1c(-c2ccco2)cs/c1=N/c1cccnc1
IC50 (Protein Wnt-3a): 10.5 µM (active)

SMILES: Cc1ccc(CN2CCN(c3ncccn3)CC2)o1
EC50 [1]: 4 µM (active)
EC50 (Mu-type opioid receptor): 92.4 µM (inactive)

SMILES: c1ccc(-c2cn3c([n+]2-c2ccccc2)CCC3)cc1
IC50 (Protein Wnt-3a): 5.16 µM (active)

SMILES: CC(C)(C)c1ccc(NC(=O)N2CCN(c3ccc([N+](=O)[O-])cn3)CC2)cc1
CC50 [5]: 37.5 µM (active)

SMILES: CC(=O)N1CCCCN2[C@H](CO)[C@H](c3ccc(-c4cccc(C)c4)cc3)[C@@H]2C1
AC50 [6]: 9.64 µM (active)
AC50 [7]: > 52 µM (inactive)
AC50 [8]: 19.2 µM (active)

SMILES: O=C(CCc1ccccc1)Nc1ccc(N2CCOCC2)cc1
IC50 (Estrogen receptor beta): > 50 µM (not active)

SMILES: CCOC(=O)Cc1nn(C)c(=O)c2ccccc12
IC50 (Estrogen receptor beta): > 50 µM (not active)

Now from value to compound, other results behind:

IC50 [2]: 22.5 µM (active)
IC50 [3]: 15.8 µM (active)
IC50 (Aminopeptidase N): 16.6 µM (active)
IC50 (Caspase-3): 41.1 µM (active)
SMILES: O=C(O)COc1ccccc1/C=N/NC(=O)CSc1nnc(SCc2ccc(Cl)cc2)s1
IC50 [4]: > 100 µM (inactive)

IC50 (Protein Wnt-3a): 2.07 µM (active)
SMILES: COc1ccc2c(c1)c(C)cc[n+]2Cc1ccccc1

IC50 (Protein Wnt-3a): 0.973 µM (active)
SMILES: CC(C)(C)c1ccc(-n2ncc3c2CCCC3NC(=O)CCN2CCCC2=O)cc1 (configuration not stated)

IC50 (Estrogen receptor beta): > 50 µM (not active)
SMILES: Cc1cccc(-n2c(SCc3cc(=O)n4c(C)cccc4n3)nc3nncc-3c2O)c1

IC50 (Coagulation factor XII): > 50 µM (inactive)
IC50 [2]: 25.2 µM (active)
IC50 [3]: 9.65 µM (active)
IC50 (Caspase-3): 27.5 µM (active)
SMILES: Cc1ccc(C)c(-c2nc3cc(N)ccc3o2)c1
IC50 [4]: 31.1 µM (active)

EC50 [1]: 1.19 µM (active)
EC50 (Mu-type opioid receptor): 92.4 µM (inactive)
SMILES: CCOC(=O)N1CCN(Cc2ccc3c(c2)OCO3)CC1
